The source of these data is paper PMC6976883, “Detection in two hospitals of transferable ceftazidime-avibactam resistance in Klebsiella pneumoniae due to a novel VEB β-lactamase variant with a Lys234Arg substitution, Greece, 2019” (Eurosurveillance, 2020).

pIC50: −log10 of the molar value.

The target of this experiment is T1, VEB-1 (Escherichia coli, UniProt Q7BVU7).
T1 construct: gene blaVEB; natural plasmid-encoded enzyme, no tags; crude cell extracts of E. coli K12 26R793 transconjugants TrcS-2865 (VEB-1) and TrcE-1037 (VEB-25, GenBank MN862699), which also contain OXA-10 and TEM-1
As to the kind of experiment: spectrophotometric inhibition of ceftazidime hydrolysis. It is filed as biochemical.

Take `NC(=O)[C@@H]1CC[C@@H]2CN1C(=O)N2OS(=O)(=O)O` [avibactam]: the negative logarithm of the IC50 (pIC50) – broadly, the IC50 on a negative log10 scale, so that one unit is a factor of ten – is 10.00.
